Assay results from US10961238B2, “Modulators of hedgehog (Hh) signaling pathway” (E-THERAPEUTICS PLC, priority 2016, dated 2021).

Test system: C3H10T1/2 cells
Assay: C3H assay: differentiation of C3H10T1/2 cells by mSHH, measurement of alkaline phosphatase
Format: cell-based, mouse
Details: C3H10T1/2 cells stimulated with mSHH for 72 hours; alkaline phosphatase activity; read-out: IC50 Ranges

IC50 [nM]	SMILES
10 to 100	CC[C@@H](C)OC(=O)N1CC(S(=O)(=O)N2CCC(c3coc4cccnc34)CC2)C1 [Compound 371, [(2R)-butan-2-yl]3-(4-furo[3,2-b]pyridin-3-ylpiperidin-1-yl)sulfonylaze-tidine-1-carboxylate]

Same assay, conditions: Mus musculus, C3H 10T1/2, 72 h, read-out: IC50 Ranges

SMILES	IC50 [nM]
C[C@@H]1CN(C(=O)N2CC(S(=O)(=O)N3CCC(c4c[nH]c5ncccc45)CC3)C2)C[C@H](C)O1 [Compound 170]	10 to 100

Same assay, conditions: Mus musculus, C3H 10T1/2; C3H10T1/2 cells stimulated with mSHH for 72 hours; alkaline phosphatase activity; read-out: IC50 Ranges

IC50 [nM]	SMILES
100 to 1000	O=C(O[C@@H]1CCOC1)N1CC(S(=O)(=O)N2CCC(c3c[nH]c4ncccc34)CC2)C1 [Compound 196, [(3R)-oxolan-3-yl]3-[4-(1H-pyrrolo[2,3-b]pyridin-3-yl)piperidin-1-yl]sulfonylaze-tidine-1-carboxylate]
1000 to 10000	O=S(=O)(C1CN(Cc2cccnc2)C1)N1CCC(c2c[nH]c3ncccc23)CC1 [Compound 157, 3-[1-[1-(pyridin-3-ylmethyl)azetidin-3-yl]sulfonylpiper-idin-4-yl]-1H-pyrrolo[2,3-b]pyridine]
100 to 1000	O=S(=O)(C1CN(c2ncccn2)C1)N1CCC(c2c[nH]c3ncccc23)CC1 [Compound 155, 3-[1-(1-pyrimidin-2-ylazetidin-3-yl)sulfonylpiper-idin-4-yl]-1H-pyrrolo[2,3-b]pyridine]
100 to 1000	O=C(OC1CCOCC1)N1CC(S(=O)(=O)N2CCC(c3ccc(Cl)cc3)CC2)C1 [Compound 320, oxan-4-yl 3-[4-(4-chlorophenyl)piperidin-1-yl]sulfonylaze-tidine-1-carboxylate]
10 to 100	Cc1noc(C)c1NC(=O)N1CC(S(=O)(=O)N2CCC(c3ccc(Cl)cc3)CC2)C1 [Compound 322, 3-[4-(4-chlorophenyl)piperidin-1-yl]sulfonyl-N-(3,5-dimethyl-1,2-oxazol-4-yl)azetidine-1-carboxamide]
10 to 100	Cc1noc(C)c1CC(=O)N1CC(S(=O)(=O)N2CCC(c3ccc(C#N)cc3)CC2)C1 [Compound 349, 4-[1-[1-[2-(3,5-dimethyl-1,2-oxazol-4-yl)acetyl]azetidin-3-yl]sulfonylpiper-idin-4-yl]benzonitrile]
< 10	Cc1noc(C)c1NC(=O)N1CC(S(=O)(=O)N2CCC(c3coc4cccnc34)CC2)C1 [Compound 135, N-(3,5-dimethyl-1,2-oxazol-4-yl)-3-(4-furo[3,2-b]pyridin-3-ylpiperidin-1-yl)sulfonylaze-tidine-carboxamide]
10 to 100	Cc1ccc(F)cc1NC(=O)N1CC(S(=O)(=O)N2CCC(c3coc4cccnc34)CC2)C1 [Compound 365, N-(5-fluoro-2-methylphenyl)-3-(4-furo[3,2-b]pyridin-3-ylpiperidin-1-yl)sulfonylaze-tidine-1-carboxamide]
100 to 1000	O=C(OC1COC1)N1CC(S(=O)(=O)N2CCC(c3c[nH]c4ncccc34)CC2)C1 [Compound 222, oxetan-3-yl 3-[4-(1H-pyrrolo[2,3-b]pyridin-3-yl)piperidin-1-yl]sulfonylaze-tidine-1-carboxylate]
10 to 100	C[C@@H]1CN(C(=O)N2CC(S(=O)(=O)N3CCC(c4ccc(Cl)cc4)CC3)C2)C[C@H](C)O1 [Compound 393, [3-[4-(4-chlorophenyl)piperidin-1-yl]sulfonylaze-tidin-1-yl]-[(2R,6S)-2,6-dimethylmorpholin-4-yl]methanone]
100 to 1000	O=C(NC1(C(F)(F)F)CC1)N1CC(S(=O)(=O)N2CCC(c3ccncc3)CC2)C1 [Compound 265, 3-(4-pyridin-4-ylpiperidin-1-yl)sulfonyl-N-[1-(trifluoromethyl)-cyclopropyl] azetidine-1-carboxamide]
1000 to 10000	Cc1ccc(F)cc1NC(=O)N1CC(S(=O)(=O)N2CCC(c3ccc(F)cc3)CC2)C1 [Compound 367, N-(5-fluoro-2-methylphenyl)-3-[4-(4-fluorophenyl)piperidin-1-yl]sulfonylaze-tidine-1-carboxamide]
1000 to 10000	CN(C(=O)N1CC(S(=O)(=O)N2CCC(c3ccc(C#N)cc3)CC2)C1)C1CC1 [Compound 350, 3-[4-(4-cyanophenyl)piperidin-1-yl]sulfonyl-N-cyclopropyl-N-methylazetidine-1-carboxamide]
10 to 100	COc1ccccc1OC(=O)N1CC(S(=O)(=O)N2CCC(c3ccncc3)CC2)C1 [Compound 27, (2-methoxyphenyl) 3-(4-pyridin-4-ylpiperidin-1-yl)sulfonylaze-tidine-1-carboxylate]
10 to 100	Cc1ccccc1NC(=O)N1CC(S(=O)(=O)N2CCC(c3c[nH]c4ncccc34)CC2)C1 [Compound 364, N-(2-methylphenyl)-3-[4-(1H-pyrrolo[2,3-b]pyridin-3-yl)piperidin-1-yl]sulfonylaze-tidine-1-carboxamide]
1000 to 10000	CN(C)C(=O)N1CC(S(=O)(=O)N2CCC(c3c[nH]c4ncccc34)CC2)C1 [Compound 167, N,N-dimethyl-3-[4-(1H-pyrrolo[2,3-b]pyridin-3-yl)piperidin-1-yl]sulfonylaze-tidine-1-carboxamide]
1000 to 10000	Cc1ccc(NC(=O)N2CC(S(=O)(=O)N3CCC(c4ccncc4)CC3)C2)cc1 [Compound 282, N-(4-methylphenyl)-3-(4-pyridin-4-ylpiperidin-1-yl)sulfonylaze-tidine-1-carboxamide]

IC50 [nM]	SMILES
100 to 1000	COc1ccc(C2CCN(S(=O)(=O)C3CCN(C(=O)OC(C)(C)C)CC3)CC2)cc1 [Compound 13, tert-butyl 4-[4-(4-methoxyphenyl)piperidin-1-yl]sulfonylpiper-idine-1-carboxylate]
1000 to 10000	Cc1noc(C)c1C(=O)N1CC(S(=O)(=O)N2CCC(c3ccccc3)CC2)C1 [Compound 316, (3,5-dimethyl-1,2-oxazol-4-yl)-[3-(4-phenylpiperidin-1-yl)sulfonylaze-tidin-1-yl]methanone]
1000 to 10000	CC(C)(C)OC(=O)N1CC(S(=O)(=O)N2CCC(c3c[nH]c4cnccc34)CC2)C1 [Compound 339, tert-butyl 3-[4-(1H-pyrrolo[2,3-c]pyridin-3-yl)piperidin-1-yl]sulfonylaze-tidine-1-carboxylate]
100 to 1000	Cc1ccc(F)cc1NC(=O)N1CC(S(=O)(=O)N2CCC(c3ccc(Cl)cc3)CC2)C1 [Compound 400, 3-[4-(4-chlorophenyl)piperidin-1-yl]sulfonyl-N-(5-fluoro-2-methylphenyl) azetidine-1-carboxamide]
10 to 100	CC(C)(C)NC(=O)N1CC(S(=O)(=O)N2CCC(c3coc4cccnc34)CC2)C1 [Compound 370, N-tert-butyl-3-(4-furo[3,2-b]pyridin-3-ylpiperidin-1-yl)sulfonylaze-tidine-1-carboxamide]
1000 to 10000	O=C(NC1(C(F)(F)F)CC1)N1CC(S(=O)(=O)N2CCC(c3c[nH]c4cnccc34)CC2)C1 [Compound 355, 3-[4-(1H-pyrrolo[2,3-c]pyridin-3-yl)piperidin-1-yl]sulfonyl-N-[1-(trifluoromethyl)cyclopropyl] azetidine-1-carboxamide]
1000 to 10000	O=S(=O)(C1CN(c2ccncc2)C1)N1CCC(c2c[nH]c3ncccc23)CC1 [Compound 71, 3-[1-(1-pyridin-4-ylazetidin-3-yl)-sulfonylpiper-idin-4-yl]-1H-pyrrolo[2,3-b]pyridine]
1000 to 10000	CN(C)CC(=O)N1CC(S(=O)(=O)N2CCC(c3c[nH]c4ncccc34)CC2)C1 [Compound 325, 2-(dimethylamino)-1-[3-[4-(1H-pyrrolo[2,3-b]pyridin-3-yl)piperidin-1-yl]sulfonylaze-tidin-1-yl]ethanone]
100 to 1000	C[C@H]1COC[C@H](C)N1C(=O)N1CC(S(=O)(=O)N2CCC(c3c[nH]c4ncccc34)CC2)C1 [Compound 165, [(3S,5S)-3,5-dimethylmorpholin-4-yl]-[3-[4-(1H-pyrrolo[2,3-b]pyridin-3-yl)piperidin-1-yl]sulfonylaze-tidin-1-yl]methanone]
1000 to 10000	O=C(N1CC(S(=O)(=O)N2CCC(c3c[nH]c4ncccc34)CC2)C1)n1ccnc1 [Compound 79, imidazol-1-yl-[3-[4-(1H-pyrrolo[2,3-b]pyridin-3-yl)piperidin-1-yl]sulfonylaze-tidin-1-yl]methanone]
10 to 100	O=C(Nc1cc(F)ccc1Cl)N1CC(S(=O)(=O)N2CCC(c3coc4cccnc34)CC2)C1 [Compound 384, N-(2-chloro-5-fluorophenyl)-3-(4-furo[3,2-b]pyridin-3-ylpiperidin-1-yl)sulfonylaze-tidine-1-carboxamide]
10 to 100	CC(C)(C)OC(=O)N1CC(S(=O)(=O)N2CCC(c3c[nH]c4nccnc34)CC2)C1 [Compound 128, tert-Butyl 3-[[4-(5H-pyrrolo[2,3-b]pyrazin-7-yl)-1-piperidyl]sulfonyl] azetidine-1-carboxylate]
1000 to 10000	CC(C)(C)OC(=O)N1CC(S(=O)(=O)N2CCN(c3c[nH]c4ncccc34)CC2)C1 [Compound 226, tert-Butyl 3-[4-(1H-pyrrolo[2,3-b]pyridin-3-yl)piperazin-1-yl]sulfonylazetidine-1-carboxylate]
10 to 100	CC(C)N(CC(=O)N1CC(S(=O)(=O)N2CCC(c3coc4cccnc34)CC2)C1)C(C)C [Compound 330, 2-[di(propan-2-yl)amino]-1-[3-(4-furo[3,2-b]pyridin-3-ylpiperidin-1-yl)sulfonylaze-tidin-1-yl]ethanone]
1000 to 10000	CC(C)(C)OC(=O)N1CC(S(=O)(=O)N2CCC(c3cnc4n3CCCC4)CC2)C1 [Compound 101, tert-butyl 3-[4-(5,6,7,8-tetrahydroimidazo [1,2-a]pyridin-3-yl)piperidin-1-yl]sulfonylaze-tidine-1-carboxylate]
10 to 100	COc1ccc(COC(=O)N2CC(S(=O)(=O)N3CCC(c4c[nH]c5ncccc45)CC3)C2)cc1F [Compound 209, (3-fluoro-4-methoxyphenyl) methyl 3-[4-(1H-pyrrolo[2,3-b]pyridin-3-yl)piperidin-1-yl]sulfonylaze-tidine-1-carboxylate]
10 to 100	CC(C)N(C)C(=O)N1CC(S(=O)(=O)N2CCC(c3c[nH]c4ncccc34)CC2)C1 [Compound 119, N-methyl-N-propan-2-yl-3-[4-(1H-pyrrolo [2,3-b]pyridin-3-yl)piperidin-1-yl]sulfonylaze-tidine-1-carboxamide]
